The NIST ThermoML archive (doi:10.1021/je900137r)

Assay: molar heat capacity at constant volume
Conditions: Liquid, Vacuum adiabatic calorimetry

CCC [propane]
Conditions | molar heat capacity at constant volume [J/K/mol]
270.37 K, 19134 kPa | 70.51
271.33 K, 19881 kPa | 70.43
272.95 K, 21136 kPa | 70.81
273.9 K, 21877 kPa | 70.9
275.54 K, 23127 kPa | 70.92
276.18 K, 3327 kPa | 70.24
276.48 K, 23865 kPa | 71.62
276.56 K, 3559 kPa | 70.86
278.12 K, 25101 kPa | 71.49
278.85 K, 5025 kPa | 70.73
279.04 K, 25835 kPa | 72.09
279.23 K, 5297 kPa | 71.29
280.7 K, 27065 kPa | 72.08
281.51 K, 6761 kPa | 71.44
281.61 K, 27786 kPa | 72.29
281.9 K, 7032 kPa | 70.95
283.29 K, 29020 kPa | 72.18
284.18 K, 8508 kPa | 71.57
284.19 K, 29713 kPa | 72.65
284.58 K, 8760 kPa | 71.75
285.87 K, 30962 kPa | 72.47
286.77 K, 31632 kPa | 72.64
286.85 K, 10247 kPa | 71.76
287.26 K, 10490 kPa | 72.25
288.45 K, 32894 kPa | 72.96
289.34 K, 33552 kPa | 73.33
289.52 K, 11964 kPa | 71.92
289.95 K, 12212 kPa | 72.29
292.2 K, 13671 kPa | 72.85
292.64 K, 13928 kPa | 73.17
294.88 K, 15364 kPa | 73.57
295.34 K, 15644 kPa | 73.82
297.56 K, 17055 kPa | 74.47
298.05 K, 17358 kPa | 74.2
300.26 K, 18750 kPa | 74.37
300.73 K, 2939 kPa | 74.37
300.76 K, 19068 kPa | 74.45
301.58 K, 3377 kPa | 74.41
301.67 K, 3419 kPa | 74.62
302.95 K, 20442 kPa | 74.16
303.48 K, 20773 kPa | 74.78
303.54 K, 4354 kPa | 74.77
304.37 K, 4801 kPa | 74.97
304.51 K, 4850 kPa | 74.76
305.65 K, 22131 kPa | 75.52
306.2 K, 22473 kPa | 75.56
306.36 K, 5801 kPa | 74.54
307.19 K, 6235 kPa | 74.97
307.35 K, 6310 kPa | 75.3
308.37 K, 23829 kPa | 76.01
308.94 K, 24172 kPa | 76.12
309.19 K, 7252 kPa | 75.53
310.01 K, 7669 kPa | 75.56
310.22 K, 7778 kPa | 75.78
311.08 K, 25517 kPa | 76.58
311.68 K, 25869 kPa | 76.11
312.04 K, 8706 kPa | 75.83
312.85 K, 9104 kPa | 76.02
313.1 K, 9241 kPa | 76.23
313.82 K, 27203 kPa | 77.38
314.43 K, 27556 kPa | 77.06
314.91 K, 10151 kPa | 75.71
315.69 K, 10543 kPa | 77.05
316 K, 10697 kPa | 76.49
316.58 K, 28887 kPa | 76.95
317.18 K, 29242 kPa | 77.79
317.79 K, 11598 kPa | 77.05
318.56 K, 11984 kPa | 77.31
318.91 K, 12158 kPa | 77.07
319.33 K, 30553 kPa | 77.02
319.67 K, 2142 kPa | 76.76
319.95 K, 30930 kPa | 77.48
320.71 K, 13058 kPa | 77.4
321.3 K, 2771 kPa | 77.58
321.43 K, 13428 kPa | 77.25
321.83 K, 13623 kPa | 76.95
322.1 K, 32227 kPa | 78.59
322.71 K, 3326 kPa | 77.29
322.73 K, 32614 kPa | 78
323.62 K, 14518 kPa | 78.11
324.31 K, 14874 kPa | 77.39
324.35 K, 3977 kPa | 78.06
324.77 K, 15094 kPa | 77.5
324.91 K, 33925 kPa | 78.84
325.78 K, 4543 kPa | 78.25
326.57 K, 15995 kPa | 78.02
327.22 K, 16325 kPa | 78.34
327.42 K, 5191 kPa | 78.96
327.73 K, 16576 kPa | 78.56
328.88 K, 5770 kPa | 78.35
329.52 K, 17472 kPa | 78.67
330.15 K, 17784 kPa | 78.59
330.51 K, 6416 kPa | 78.78
330.7 K, 18059 kPa | 79.38
331.99 K, 6999 kPa | 78.63
332.5 K, 18957 kPa | 79.25
333.09 K, 19244 kPa | 78.85
333.62 K, 7647 kPa | 78.71
333.68 K, 19542 kPa | 80.2
335.12 K, 8240 kPa | 79.2
335.5 K, 20439 kPa | 79.93
336.05 K, 20709 kPa | 79.2
336.7 K, 21027 kPa | 80.28
336.76 K, 8887 kPa | 79.06
338.28 K, 9489 kPa | 80.76
338.52 K, 21926 kPa | 80.26
339.05 K, 22184 kPa | 80.79
339.73 K, 22511 kPa | 80.76
339.92 K, 10135 kPa | 80.44
341.46 K, 10747 kPa | 81.71
341.56 K, 23408 kPa | 80.54
342.07 K, 23667 kPa | 81.31
342.79 K, 24013 kPa | 81.23
343.1 K, 11393 kPa | 80.84
344.62 K, 24907 kPa | 81.87
344.67 K, 12011 kPa | 81.35
